Experimental findings from patent publication US20130196050A1, “SALTY TASTE ENHANCER” (AJINOMOTO CO., INC., priority 2010, published 2013) are described below.

The experiment has as its target T1, Human ENaC δ, β and γ subunit (Homo sapiens, UniProt P51168+P51170+P51172).
T1 construct: expressed in transfected cells; host or cells: Xenopus laevis (African clawed frog) oocytes injected with cRNA
T1 sequence (P51172 1-638 isoform P51172-1): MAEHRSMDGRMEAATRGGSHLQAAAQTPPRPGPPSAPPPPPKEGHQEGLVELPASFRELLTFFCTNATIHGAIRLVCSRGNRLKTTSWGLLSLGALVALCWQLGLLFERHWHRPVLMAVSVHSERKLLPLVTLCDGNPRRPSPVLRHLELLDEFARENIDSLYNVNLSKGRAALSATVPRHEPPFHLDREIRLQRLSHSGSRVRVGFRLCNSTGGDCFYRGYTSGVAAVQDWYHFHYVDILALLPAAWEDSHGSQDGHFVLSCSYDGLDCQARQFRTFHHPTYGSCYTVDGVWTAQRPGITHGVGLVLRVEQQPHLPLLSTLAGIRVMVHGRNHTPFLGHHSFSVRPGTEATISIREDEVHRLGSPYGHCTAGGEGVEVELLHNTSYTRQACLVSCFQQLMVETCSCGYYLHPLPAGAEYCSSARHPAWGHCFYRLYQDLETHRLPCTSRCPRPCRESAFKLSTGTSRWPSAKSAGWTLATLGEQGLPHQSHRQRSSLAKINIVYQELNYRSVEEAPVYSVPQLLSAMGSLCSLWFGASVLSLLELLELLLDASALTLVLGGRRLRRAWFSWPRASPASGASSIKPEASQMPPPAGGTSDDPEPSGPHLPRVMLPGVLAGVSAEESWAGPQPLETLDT
T1 sequence (P51168 1-640): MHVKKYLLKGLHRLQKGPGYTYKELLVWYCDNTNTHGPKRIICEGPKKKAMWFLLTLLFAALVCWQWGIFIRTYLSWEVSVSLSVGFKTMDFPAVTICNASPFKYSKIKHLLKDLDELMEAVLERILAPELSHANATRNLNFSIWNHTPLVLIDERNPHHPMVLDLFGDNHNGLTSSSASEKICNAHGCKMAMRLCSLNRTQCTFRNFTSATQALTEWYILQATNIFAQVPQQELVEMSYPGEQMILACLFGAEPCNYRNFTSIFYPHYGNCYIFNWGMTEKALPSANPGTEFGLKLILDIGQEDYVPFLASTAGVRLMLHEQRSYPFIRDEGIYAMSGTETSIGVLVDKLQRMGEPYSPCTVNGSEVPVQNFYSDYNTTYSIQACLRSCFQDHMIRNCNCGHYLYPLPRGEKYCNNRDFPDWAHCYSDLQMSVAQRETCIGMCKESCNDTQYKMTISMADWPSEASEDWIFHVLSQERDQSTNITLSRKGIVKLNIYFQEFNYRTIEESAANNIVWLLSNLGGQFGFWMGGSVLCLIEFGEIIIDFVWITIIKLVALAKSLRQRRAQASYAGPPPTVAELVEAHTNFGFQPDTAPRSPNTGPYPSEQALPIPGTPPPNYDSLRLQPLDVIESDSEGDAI
T1 sequence (P51170 1-649): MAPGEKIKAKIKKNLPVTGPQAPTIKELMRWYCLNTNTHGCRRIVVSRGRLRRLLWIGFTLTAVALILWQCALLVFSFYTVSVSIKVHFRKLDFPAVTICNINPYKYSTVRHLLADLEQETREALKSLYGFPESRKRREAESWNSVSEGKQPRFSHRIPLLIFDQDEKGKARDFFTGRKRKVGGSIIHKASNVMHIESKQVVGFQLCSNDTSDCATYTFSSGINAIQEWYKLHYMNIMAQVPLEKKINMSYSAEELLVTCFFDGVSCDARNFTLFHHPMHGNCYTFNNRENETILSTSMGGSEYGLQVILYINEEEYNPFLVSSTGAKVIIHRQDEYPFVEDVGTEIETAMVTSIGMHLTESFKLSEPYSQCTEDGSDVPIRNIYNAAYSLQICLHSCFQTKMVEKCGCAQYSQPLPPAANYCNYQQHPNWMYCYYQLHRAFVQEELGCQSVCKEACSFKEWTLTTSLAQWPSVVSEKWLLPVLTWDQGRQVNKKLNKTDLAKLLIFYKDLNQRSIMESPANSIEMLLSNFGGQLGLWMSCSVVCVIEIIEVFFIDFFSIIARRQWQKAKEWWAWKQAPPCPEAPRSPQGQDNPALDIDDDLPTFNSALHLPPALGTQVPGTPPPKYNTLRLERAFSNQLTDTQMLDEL
Briefly: Measurement of ENaC activation potency (two electrode voltage clamp current in ENaC-expressing oocyte). In kind it is cell-based. Conditions: lowest concentration increasing the current value by not less than 10% vs before addition. How it is done: ENaC activation current value, namely, the inward current in ENaC-expressing oocyte was measured as follows.
According to the method described in Motonao Nakamura, Takao Shimizu: Experiment of African clawed frog oocyte, Experimental Medicine Vol. 11, No. 3, 224-232 (1993), oocyte was collected from African clawed frog, […], and the current value was measured by a Two Electrode Voltage Clamp technique. In the present invention, ND96 (96 mM NaCl, 2 mM KCl, 1 mM MgCl2, 5 mM Hepes, 1.8 mM CaCl2, pH 7.6) was used instead of MBS buffer in the above-mentioned document. Injector NANOLITER 2000 manufactured by World Precision Instruments was used for microinjection, OpusXpress 6000A manufactured by Molecular Devices was used for current value measurement by a Two Electrode Voltage Clamp technique, and Clampfit 10.2 software manufactured by Molecular Devices was used for data analysis.
Human ENaC δ, β and γ subunit genes shown by SEQ ID NOs: 1, 2 and 3, respectively, in the Sequence Listing were each cloned into a plasmid vector, and used as a template DNA for cRNA synthesis. cRNA was synthesized using MEGAscript kit manufactured by Ambion and according to the method of the manual of the manufacturer.
A mixture of the same amount of ENaC δ subunit cRNA (0.4 to 0.8 μg/μL), and β and γ subunits cRNA (0.4 μg/μL) was injected into the oocyte of African clawed frog at 27.6 nL per oocyte, and the oocyte was cultured for 16 hours to 72 hours. Thereafter, the oocyte was set on a measuring apparatus OpusXpress 6000A, the electrodes were inserted into the oocyte, the voltage was clamped at a level lower by −30 mV than the resting membrane potential by a Two Electrode Voltage Clamp technique, and the current value was measured.
To measure the ENaC activation potency, oocyte was stimulated with each test compound, and the minimum effective dose (hereinafter to be abbreviated as MED) of the compound at the time point when the electric current started to increase was measured. In this case, the minimum effective dose of the stimulation compound that increased the current value by not less than 10%, as compared to the current value before addition of the compound and without stimulation, was taken as MED. A smaller MED means higher ENaC activation potency.
Each test compound was directly dissolved in ND96, or first dissolved in dimethyl sulfoxide (DMSO) to 100 mM, and then prepared by diluting the solution with ND96 to a concentration used for the evaluation. The concentration of the test compound in ND96 was prepared to various concentrations within the range of 0.1 nM to 300 μm.
ND96 as a perfusion fluid was flowed at a rate of 0.5 mL/min through the measuring apparatus OpusXpress 6000A on which ENaC-expressing oocyte was set, the perfusion fluid was temporarily stopped every 3 minutes to add a test compound solution (0.25 mL) dissolved in ND96 at a rate of 0.5 mL/minute. In this way, the test compound was contacted with ENaC-expressing oocyte, and whether ENaC is activated by the compound was examined by measuring the current value. After addition of the test compound, feeding of the perfusion fluid was resumed to wash away the compound to be ready for the next addition of the compound.
The compound was added successively from a low concentration to a high concentration to stimulate ENaC-expressing oocyte. The concentrations actually added was, for example, 1 nM, 3 nM, 10 nM, 30 nM, 100 nM, 300 nM; 1 μM, 3 μM, 10 μm, 30 μm, 100 μm, 300 μm; 1.2 μM, 6 μM, 30 μm, 150 μm of one test compound. The compound was added from low concentrations to high concentrations at 3 minute intervals. The first compound was added from a low concentration to a high concentration, then the second and the third compounds were similarly added successively to the same oocyte, and changes in the current value were measured. The current value was continuously measured from the start to the end of the experiment. […]
Background: Two-electrode voltage clamp is typically applied to oocytes expressing channels or transporters.
For `COC(=O)[C@H](Cc1c[nH]c2ccccc12)NC(=O)c1c(O)cc(O)cc1O` [Example 120], the “MED value (minimum effective dose)” value was 0.3 µM.
`O=C(CCc1c[nH]c2ccccc12)Nc1c(O)cccc1O` [Example 87]: the “MED value (minimum effective dose)” value turned out to be 3 µM.
Under `COC(=O)[C@H](CCc1ccccc1)NC(=O)c1c(O)cc(C)cc1O` [Example 116] stands 3 to 10 µM; under `CCOC(=O)[C@H](Cc1ccccc1)NC(=O)c1cc(Br)ccc1O` [Example 109], 3 µM; under `COC(=O)[C@H](Cc1c[nH]c2ccccc12)NC(=O)c1c(O)cc(C)cc1O` [Example 112], 1 µM.
The figure for `Cc1cc(O)c(C(=O)NCCc2c[nH]c3ccc(O)cc23)c(O)c1` [Example 29] is 1 to 3 µM; for `N[C@@H](Cc1c[nH]c2ccccc12)C(=O)Nc1ccccc1S(=O)(=O)O` [Example 119] it is 0.3 µM; for `N[C@@H](CCc1ccccc1)C(=O)Nc1ccccc1S(=O)(=O)O` [Example 103] it is 1 µM.
Under `COC(=O)C(C)(Cc1c[nH]c2ccccc12)NC(=O)c1c(O)cccc1O` (centres unmarked) [Example 16] stands 3 µM.
With `O=C(N[C@H](CO)Cc1c[nH]c2ccccc12)c1c(O)cccc1O` [Example 14], the “MED value (minimum effective dose)” value is 1 µM.
The figure for `O=C(NCCc1c[nH]c2ccccc12)c1cc(Br)ccc1O` [Example 95] is 1 µM.
Under `COc1ccc(CCC(=O)Nc2c(O)cccc2O)cc1O` [Example 89] stands 10 µM; under `O=C(N[C@@H](Cc1c[nH]c2ccccc12)C(=O)OCc1ccccc1)c1c(O)cccc1O` [Example 15], 10 µM.
Under `O=C(NCCc1c[nH]c2ccccc12)c1c(O)cc(O)cc1O` [Example 125] stands 1 µM.
For `O=C(CCc1ccc2c(c1)OCO2)N[C@@H](Cc1c[nH]c2ccccc12)C(=O)O` [Example 66], the “MED value (minimum effective dose)” value worked out at 3 µM.
With `O=C(CCc1ccccc1)N[C@@H](Cc1c[nH]c2ccc(O)cc12)C(=O)O` [Example 74], the “MED value (minimum effective dose)” value was 10 µM.
Consider `N[C@@H](Cc1c[nH]c2ccccc12)C(=O)Nc1c(O)cccc1O` [Example 22], for which the “MED value (minimum effective dose)” value was 3 µM.
The figure for `O=C(N[C@H](Cc1c[nH]c2ccccc12)C(=O)O)c1cc(O)ccc1O` [Example 41] is 1 µM.
Under `COC(=O)[C@H](CCc1ccccc1)NC(=O)c1cc(Br)ccc1O` [Example 98] stands 10 µM; under `O=C(N[C@@H](Cc1ccccc1)C(=O)O)c1c(O)cc(O)cc1O` [Example 123], 10 µM.
For `O=C(NCCc1c[nH]c2ccccc12)c1c(O)cccc1O` [Example 84], the “MED value (minimum effective dose)” value was found to be 0.3 µM.
`O=C(CCc1ccccc1)N[C@@H](Cc1ccccc1)C(=O)O` [Example 72]: the “MED value (minimum effective dose)” value lay within 1 to 3 µM.
The figure for `Cc1ccc2[nH]cc(CC(NC(=O)CCc3ccccc3)C(=O)O)c2c1` (centres unmarked) [Example 73] is 1 to 3 µM; for `O=C(NCCc1c[nH]c2ccc(O)cc12)c1cc(Br)ccc1O` [Example 93] it is 0.3 µM; for `Cc1cc(O)c(C(=O)N[C@@H](CCc2ccccc2)C(=O)O)c(O)c1` [Example 117] it is 0.3 µM.
The figure for `CCOC(=O)[C@H](Cc1ccccc1)NC(=O)c1c(O)cc(C)cc1O` [Example 114] is 10 µM; for `O=C(NC(Cc1c[nH]c2ccccc12)C(=O)O)c1cccc(O)c1O` (centres unmarked) [Example 39] it is 1 µM; for `O=C(NCCc1c[nH]c2ccc(O)cc12)c1ccccc1O` [Example 6] it is 3 µM.
Under `COC(=O)[C@H](Cc1c[nH]c2ccccc12)NC(=O)c1c(O)cccc1O` [Example 1, (S)-Methyl 2-(2,6-dihydroxybenzamido)-3-(1H-indol-3-yl)propanoate] stands 0.6 µM; under `CC(C)(C)OC(=O)N[C@@H](Cc1c[nH]c2ccccc12)C(=O)Nc1c(O)cccc1O` [Example 20], 10 µM.
For the compound `COC(=O)[C@H](Cc1c[nH]c2ccc(O)cc12)NC(=O)c1c(O)cccc1O` [Example 10], the “MED value (minimum effective dose)” value was 3 µM.
Under `CN(C(=O)CCc1ccccc1)[C@@H](Cc1ccccc1)C(=O)O` [Example 78] stands 3 µM.
